Assays:
[1] = biological target: T1, cortactin SH3 domain (Mus musculus, UniProt Q60598); experiment: NMR affinity determination, binding of peptides to purified cortactin-SH3; details: binding to cortactin SH3 in vitro
T1 construct: nucleotides1468-1641); 6xHis (N, cleaved yes); made in house; host or cells: E. coli BL21 (DE3)
Experimental: The DNA sequence encoding the SH3 domain of the mouse cortactin SH3 domain (GenBank ID U03184; nucleotides1468-1641) was sub-cloned into a pET-28a plasmid (Novagen, Merck) in frame with the cleavable N-terminal 6×His tag. Isotopically labeled cortactin-SH3 for heteronuclear NMR experiments was expressed in transformed E. coli BL21 cells (DE3) grown in the presence of kanamycin (50 mg/1) and chloramphenicol (34 mg/1) at 37° C. in M9 minimal medium. For ^15N (^13C) labeling the medium contained 1 g/L of ^15NH4Cl (4 g/L ^13C6-glucose), and 0.25 g/l of appropriately labeled Celtone Base Powder (Cambridge Isotope Laboratories, Andover, MA) was added. For triple-labeled ^2H,^13C,^15N—SH3, expression began in 100 ml of the above medium grown to an OD600 of 0.4-0.5 and gently centrifuged. Pellets were then resuspended in 500 ml filter-sterilized D20-based ^15N-M9 supplemented with ^2H7-^13C6-glucose (2 g/1) and DCN-Isogro (0.25 g/1) to reach a final OD600 of −0.1. In both cases cells were then grown at 37° C. and induced with 0.5 mM isopropyl β-D-1-thiogalactopyranoside (IPTG) upon reaching OD600-0.8, followed by overnight growth at 27° C. To purify the SH3 domain, cells were harvested by centrifugation, subjected to a single freeze-thaw cycle, and resuspended in lysis buffer (50 mM NaPi pH 8.0, 300 mM NaCl, 1 mM dithiothreitol (DTT), 100 ml per liter of culture) supplemented with 1 tablet EDTA-free protease inhibitor cocktail (Merck) and benzamidine (5 mM). Cells were lysed by French press, followed by addition of benzamidine (final concentration 10 mM) and phenylmethylsulfonyl fluoride (PMSF, 1 mM), and the lysate was clarified by centrifugation. The supernatant was loaded on a HisTrap HP column (GE Healthcare, Chicago, IL, USA) equilibrated with lysis buffer and the protein eluted through a gradient (Buffer B: 50 mM NaPi pH 8.0, 100 mM NaCl, 300 mM imidazole, 1 mM DTT). To the fraction eluting at ˜40% B purified tobacco etch virus (TEV) protease (1:30 mol:mol) was added, and the mixture dialyzed overnight at 4° C. against dialysis buffer (50 mM NaPi at pH 8.0, 100 mM NaCl, 1 mM DTT). The dialysate was brought to a final concentration of ˜5 mM imidazole, filtered, and loaded onto a HisTrap column. The collected flowthrough was dialyzed against 20 mM Tris (pH 7.5), 1 mM DTT for 3 h to reach a final concentration of 10 mM NaCl. […]
Purified SH3 was dialyzed against NMR sample buffer (30 mM NaPi, pH ˜6.5) and concentrated to the desired concentration in an Amicon concentration tube (3 kDa MWCO) (Merck). […] For quantitative titrations, purchased peptides were dissolved in 100-300 μl NMR sample buffer, and samples at varying (SH3:PRR2 1:0-1:6, SH3 concentration constant at 0.1 mM) ratios were prepared. Fittings were performed with 5-6 measured points. […]

[2] = system: MDA-MB-231 cells; experiment: 2D single-cell random migration assay; format: cell-based, human; details: all concentrations; 12 hours; compared to control peptide; data not shown
Experimental: The 2D single-cell random migration assay was performed as previously described in Genna et al. Pyk2 and FAK differentially regulate invadopodia formation and function in breast cancer cells. J Cell Biol 2018; 217: 375-395. In brief, 6-well microtiter plates were coated with 10 μg/ml fibronectin and blocked with 1% denatured BSA. Peptide pre-treated cells were plated at 20,000 cells/well in DMEM/10% FBS containing peptides and allowed to adhere for 12-16 h. Plates were placed in a 37° C. heated chamber, and images were collected using the IncuCyte® Zoom platform (Essen Bioscience, Ann Arbor, MI, USA; 20×, NA 0.60, air objective). Phase images were collected every one hour for a total of 12 h using the IncuCyte® acquisition software. Trajectory plots, accumulated distance (total cell path length), Euclidean distance (the shortest distance between the starting point and endpoint of migration), and velocity were calculated using the chemotaxis and migration tool (ibidi GMBH, Grafelfing, Germany).

[3] = system: MDA-MB-231 cells; experiment: ECM degradation assay; format: cell-based, human; details: 24 h on fluorescent fibronectin/gelatin matrix; compared to control peptide
Experimental: The in vitro matrix degradation assay was performed as described in Genna et al., 2018 (supra). Briefly, MatTek dishes were treated with 2.5% gelatin/2.5% sucrose, cross-linked with 0.5% glutaraldehyde, treated with 10 μg/ml of fluorescently labeled fibronectin (Alexa 568; Invitrogen, Thermo Fischer Scientific), and then with 1 mg/ml NaBH4 in PBS. 125,000 cells were plated on the fibronectin/gelatin matrix in Pyk2-PRR or control peptides and allowed to degrade for 24 h. Cells were then fixed in 3.7% paraformaldehyde, and random fields were imaged using an inverted fluorescent microscope (Leica AF6000; 40×, NA 1.3, oil objective). ECM degradation was analyzed by quantifying the average degraded area in pixels per field using ImageJ.

T1 sequence (Q60598 490-546): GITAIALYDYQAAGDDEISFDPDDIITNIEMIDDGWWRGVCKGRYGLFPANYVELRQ

SMILES: C[C@H](NC(=O)[C@@H](N)[C@@H](C)O)C(=O)N[C@@H](Cc1ccccc1)C(=O)N[C@@H](CCC(N)=O)C(=O)N[C@@H](CCC(=O)O)C(=O)N1CCC[C@H]1C(=O)N1CCC[C@H]1C(=O)N1CCC[C@H]1C(=O)N[C@@H](CCCCN)C(=O)N1CCC[C@H]1C(=O)N[C@@H](CO)C(=O)N[C@@H](CCCNC(=N)N)C(=O)N1CCC[C@H]1C(=O)N[C@@H](CCCCN)C(=O)N[C@@H](Cc1ccc(O)cc1)C(=O)N[C@@H](CCCNC(=N)N)C(=O)N1CCC[C@H]1C(=O)N1CCC[C@H]1C(=O)N1CCC[C@H]1C(=O)O [Pyk2-PRR2, TAFQEPPPKPSRPKYRPPP]
- higher affinity than Pyk2-PRR3 [1]: 16 fold
- 2D motility (accumulated and Euclidean distances, velocity) [2]: reduced 2D motility
- matrix degradation (degradation area) [3]: significant decrease
